Experimental data published in patent EP2875815A1, “N'-(2-(3-oxobenzo[d]isothiazol-2(3h)-yl)acetyl)adamantane-1-carbohydrazide as a novel inhibitor for staphylococcus aureus sortase a” (Latvian Biomedical Research and Study Centre, priority 2013, dated 2015).
In brackets after ≈: the same amount, converted by molar mass. Like-named read-outs stand apart in the source and are kept apart here.

How the values were obtained:
NIH/3T3 cells = test: Cytotoxicity (MTT cell growth inhibition) test; format: cell-based; details: Mus musculus, read-out: 50% NIH/3T3 cell growth inhibition concentration, (IC50)
Description: (§1) These assays included determination of 50% SrtA inhibition concentration (IC50) of the newly synthesized derivative in dose-response experiments using the recombinant sortase A enzyme incubated with FRET peptide substrate containing the LPETG motif, minimal inhibitory concentration (MIC) test with two staphylococcal species to measure the antimicrobial efficacy of the new inhibitory molecule, and toxicity test using a normal mouse embryonic fibroblasts cell line NIH/3T3 to determine the cell growth IC50 inhibitory concentration.
The growth inhibitory effect of the newly synthesized compound was studied on NIH/3T3mouse fibroblast cell line. NIH/3T3 cells were seeded into 96-well microplates with initial density of 1x10^4 cells per well in DMEM culture medium with 10% FCS. After 24 hours of incubation, cells were exposed to a graded series of concentrations of chemical compounds for additional 48 hours. The cell medium was removed and 100 µl of fresh culture medium without phenol red and 1 mM MTT solution was added to each well. After 3 hours of incubation, an equal volume of 1% SDS-HCl solution was added and plates were incubated for additional 4 hours. Absorbance was measured at 570 nm and the data were fitted to a four parameter variable slope equation to determine the IC50 value. […]

S. epidermidis = test: MIC test, broth dilution micromethod; format: cell-based; details: Staphylococcus epidermidis; 24 hours at 37 °C, complete inhibition of cell growth
Description: as §1
(§2) The MIC values of test compounds that inhibited cell growth of Gram-positive Staphylococcus aureus and S. epidermidis were determined by broth dilution micromethod. A series of solutions with a range from 0.1 µg/ml to 400 µg/ml were made in using a logarithmical phase culture with OD600 = 0.1 (corresponds to ∼1.2 x 10^8 CFU/ml in 96-well plate standard. The plate was incubated at 37 °C for 24 hours and growth was assayed with a microplate reader by monitoring the absorption at 600 nm. All experiments were done in triplicate, and repeated three times.

Staphylococcus aureus = test: MIC test, broth dilution micromethod; format: cell-based; details: for MIC: Staphylococcus aureus, 24 hours at 37 °C, complete inhibition of cell growth, read-out: MIC, S.aureus
Description: as §1, §2

S. aureus sortase A = biological target: T1, S. aureus sortase A (Staphylococcus aureus, UniProt Q2FV99); test: SrtA enzyme FRET inhibition assay (recombinant sortase A, FRET peptide substrate with LPETG motif); format: biochemical; details: SrtA inhib. concentration, means ±SD (n = 5)
T1 construct: expressed with an N-terminal deletion of 59 amino acid residues (SrtAΔNS9, residues 60-206); made in house
Description: The catalytically active recombinant sortase A enzyme used for these studies was expressed with an N-terminal deletion of 59 amino acid residues (SrtAΔNS9, residues 60-206). The first step included high-throughput screening of potent S. aereus SrtA inhibitors and selection of new antibacterial substances as sortase A inhibitors. In order to identify potent inhibitors of S. aureus sortase A, a high-throughput screening (HTS) of a diverse library of 50,000 drug-like low-molecular weight molecules was performed, which led to the identification of novel promising drug candidates.
as §1
Values are means ±SD (n = 5).

SrtA = biological target: T2, SrtA (Staphylococcus aureus, UniProt Q2FV99); test: Binding to SrtA monitored by 2D [15N,1H]-HSQC NMR spectroscopy, with dialysis; details: 0.3 mM (1.0 equivalents) inhibitor, after dialysis against NMR sample buffer
T2 construct: expressed with an N-terminal deletion of 59 amino acid residues (SrtAΔNS9, residues 60-206); made in house
Description: • Fig. 1 - represents the binding of a selected inhibitor N-(adamantan-1-yl)-2-(3-oxo-2,3-dihydro-1,2-benzothiazol-2-yl)acetamide to SrtA monitored by 2D [^15N,^1H]-HSQC NMR spectroscopy. (a) Spectrum of SrtA in absence of inhibitor. […] (a) SrtA active site after modification by inhibitor. The inhibitor (in cyan) and near-by side chains of SrtA are shown with sticks and labeled. Side chains are colored according to their type: hydrophobic in yellow, negatively charged in red, positively charged in blue and hydrophilic in grey. Hydrogens are omitted for clarity. […] (c) Molecular surface representation of SrtA in complex with inhibitor. It can be seen in the figure that the inhibitor occupies almost all volume of the substrate pocket, the majority of interactions are hydrophobic and hydrogen bond is at the R139.
Determination of the complex structure of selected inhibitor and sortase enzyme was performed by using the nuclear magnetic resonance (NMR) spectroscopy methods. The collected NMR data allowed to specify the structure of inhibitory complexes.
To verify that the selected inhibitor can react with a cysteine thiol (such as the SrtA active site C 184) we performed a reaction with cysteine in the NMR tube and observed the formation of a covalent adduct (Figure 2). The chemical structure of the product was verified using proton 1D and 2D NMR methods.

T1 sequence (Q2FV99 60-206): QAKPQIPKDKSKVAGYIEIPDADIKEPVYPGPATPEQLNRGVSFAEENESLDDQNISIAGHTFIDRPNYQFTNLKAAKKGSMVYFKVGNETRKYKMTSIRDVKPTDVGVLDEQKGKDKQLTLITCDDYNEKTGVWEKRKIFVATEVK
T2 sequence (Q2FV99 60-206): as above

| Structure (SMILES) | IC50 (NIH/3T3 cells; NIH3T3, 48 hours exposure, MTT, mean of three independent experiments ±SD) | MIC (S. epidermidis) | MIC (Staphylococcus aureus) | MIC values of the new compound in comparison to the initial hit molecule (Staphylococcus aureus; average over S. aureus and S. epidermidis) | IC50 (S. aureus sortase A) | binding of inhibitor to SrtA (reversibility) (SrtA) | IC50 (NIH/3T3 cells; NIH3T3, 48 h) |
| --- | --- | --- | --- | --- | --- | --- | --- |
| O=C(Cn1sc2ccccc2c1=O)NNC(=O)C12CC3CC(CC(C3)C1)C2 [N'-(2-(3-oxobenzo[d]isothiazol-2(3H)-yl)acetyl)adamantane-1-carbohydrazide] | 12.1 µg/mL (≈ 31.4 µM) | 4 µg/mL (≈ 10.4 µM) | 16 µg/mL (≈ 41.5 µM) | ~10 fold | 3.8 µM | – | – |
| O=C(Cn1sc2ccccc2c1=O)NC12CC3CC(CC(C3)C1)C2 [N-(adamantan-1-yl)-2-(3-oxo-2,3-dihydro-1,2-benzothiazol-2-yl)acetamide] | – | 0.5 µg/mL (≈ 1.46 µM) | 1 µg/mL (≈ 2.92 µM) | – | 6.2 µM | irreversibly | 1.3 µg/mL (≈ 3.8 µM) |
